Measured values taken from BindingDB's records for doi:10.7270/Q2BV7F7H (Burnham Center For Chemical Genomics, 2012).
Several values for one entry are separate records, joined by “and”; a condition that tells them apart may be missing. Equal values may be shown once.

molecular target: Probable nicotinate-nucleotide adenylyltransferase (Staphylococcus aureus (strain N315), UniProt P65502)

| IC50 | Structure (SMILES) |
| --- | --- |
| 25.2 µM | Cc1cccc(C)c1Nc1nnc(SCC(=O)C(C#N)c2nc3ccccc3[nH]2)s1 (centres undefined) [MLS000392242] |
| 77.7 µM | Cc1ccc(-n2c(O)cc(N(CCc3ccccc3)C(=S)Nc3ccc(N(C)C)cc3)c2O)cc1 [SMR000159829] |
| 21.1 µM | Cc1[nH]n(-c2ccc(Cl)cc2)c(=O)c1C(c1ccccc1O)c1c(C)[nH]n(-c2ccc(Cl)cc2)c1=O [SMR000171531] |
| 25.5 µM | COc1cccc(OCc2cc(CN=Nc3ccc(C(=O)O)cc3)ccc2OC)c1 [SMR000415960] |
| 12 µM | Nc1ccccc1C(=O)NNC(=O)C(=O)CC(=O)c1ccccc1 [SMR000427706] |

Further lines, the molecule ahead of its results:

| Structure (SMILES) | IC50 |
| --- | --- |
| O=C1C(=O)N(c2nc3ccc(Cl)cc3s2)C(c2ccco2)C1C(=O)c1ccco1 (centres undefined) | 56.8 µM |
| CCOc1ccc(CN=Nc2ccc(S(=O)(=O)Nc3ccccc3C(=O)O)cc2[N+](=O)[O-])cc1 | 15.6 µM |
| O=C(O)Cc1sc(N=NCc2ccccc2)nc1-c1ccccc1 | 27.7 µM |
| C1=NC2CCCC2C(N2CCCC2)=C1 (centres undefined) | 50 µM |
| Cc1ccccc1COc1ccc(C(=O)C2C(=O)C(=O)N(CCCn3ccnc3)C2c2ccco2)cc1 (centres undefined) | 80 µM |
| Cc1ccc(Nc2nnc(SCC(=O)C(C#N)c3nc4ccccc4[nH]3)s2)c(C)c1 (centres undefined) [2-(1,3-dihydrobenzimidazol-2-ylidene)-4-[[5-(2,4-dimethylanilino)-1,3,4-thiadiazol-2-yl]thio]-3-oxobutanenitrile] | 26.7 µM and 21.4 µM |
| Cc1ccc(-n2[nH]c(C)c(C(c3cccc(O)c3)c3c(C)[nH]n(-c4ccc(C)c(C)c4)c3=O)c2=O)cc1C [2-(3,4-dimethylphenyl)-4-[[1-(3,4-dimethylphenyl)-5-hydroxy-3-methyl-1H-pyrazol-4-yl](3-hydroxyphenyl)methyl]-5-methyl-2,4-dihydro-3H-pyrazol-3-one] | 15.1 µM |
| N#CC1C(=S)N=C(N)C(c2nc(-c3ccccc3)cs2)C12CCCCC2 (centres undefined) [2-amino-4-mercapto-1-(4-phenyl-2-thiazolyl)-3-azaspiro[5.5]undeca-2,4-diene-5-carbonitrile] | 23.2 µM |
| Cc1cc(N2C(=O)C(=O)C(C(=O)c3ccc(C)o3)C2c2ccc(OCc3ccccc3)cc2)no1 (centres undefined) [3-(5-methylfuran-2-yl)carbonyl-1-(5-methyl-1,2-oxazol-3-yl)-4-oxidanyl-2-(4-phenylmethoxyphenyl)-2H-pyrrol-5-one] | 28.9 µM |
| N#CC1C(=S)N=C(N)C(c2nc(-c3ccccc3)cs2)C12CCCC2 (centres undefined) [7-amino-9-mercapto-6-(4-phenyl-2-thiazolyl)-8-azaspiro[4.5]deca-7,9-diene-10-carbonitrile] | 19.1 µM |
| CCc1nnc(NS(=O)(=O)c2ccc(N=CCC(=O)c3ccc4ccccc4c3)cc2)s1 [N-(5-Ethyl-[1,3,4]thiadiazol-2-yl)-4-(3-naphthalen-2-yl-3-oxo-propenylamino)-benzenesulfonamide] | 29.7 µM |
| CC(=NNC(=O)c1cccc(N=NC(C)c2ccco2)c1)c1ccco1 (centres undefined) [N-[1-(2-furanyl)ethylideneamino]-3-[2-[1-(2-furanyl)ethylidene]hydrazinyl]benzamide] | 14.8 µM |
| C#CCN(C[C@@H]1c2c(c(O)n(-c3ccccc3)c2O)C[C@@H](OC(=O)Nc2cccs2)[C@H]1OC(=O)Nc1cccs1)S(=O)(=O)c1ccc(C)cc1 [[(3aR,5R,6S,7S,7aS)-7-[[(4-methylphenyl)sulfonyl-prop-2-ynyl-amino]methyl]-1,3-bis(oxidanylidene)-2-phenyl-6-(thiophen-2-ylcarbamoyloxy)-3a,4,5,6,7,7a-hexahydroisoindol-5-yl] N-thiophen-2-ylcarbamate] | 34.5 µM |
| CCOC(=O)c1ccccc1-n1c(O)c2c(c1O)C(C=Cc1ccccc1)c1sc(=O)[nH]c1S2 (centres undefined) [ethyl 2-[2,5,7-trioxo-8-[(E)-2-phenylethenyl]-3,4a,7a,8-tetrahydropyrrolo[2,3]thiopyrano[4,5-b][1,3]thiazol-6-yl]benzoate] | 45.9 µM |
